Structures can show the parent of a compound that is named as a salt. Values belong to the molecule of their own block, whether it stands above or below them.
What was measured:
[1] = tested on: morphine-induced respiratory depression; test: Effects of morphine and compound on arterial blood gases in the rat; format: in vivo; conditions: opioid-treated rat
Description: Rats with pre-cannulated jugular vein and femoral arterial catheters (for administering drugs and obtaining blood samples respectively) were obtained from Harlan laboratories and kept at the animal facility at Galleon Pharmaceuticals until the experimental procedures. Each animal was dosed with morphine sulfate (10 mg/kg), dissolved in saline at a concentration of 10 mg/mL, via injection into the jugular vein over a period of 20 seconds with a 20 second flush of 0.9% NaCl saline. Prior to morphine administration, two 250 μL samples of arterial blood were aspirated from the femoral artery into a pre-heparinized syringe. The samples were analyzed on Radiometer's ABL Flex 800, where pO2, pCO2, pH, SaO2 and other parameters were recorded. Aspirated volumes of arterial blood were replaced by room temperature sterile saline (˜300 μL) slowly flushed back into the femoral arterial catheter of the rodent to prevent hypovolemia. Morphine was then administered and 2 minutes later another blood sample was taken.
The infusion started at t=15 minutes and ended at t=35 minutes. Arterial blood gas analysis occurred at time points t=12, 18, 25, 35, 40, 45, and 50 minutes.

[2] = tested on: spontaneously breathing rats; test: Dose-dependent effect on minute ventilation (MV) in naive rats; format: in vivo, rat; conditions: 1.5% isoflurane; for minute ventilation, dose dependence: cumulative IV doses
Description: (§1) All surgical procedures were performed under anesthesia induced by 2% isoflurane in compressed medical grade air. With rats in supine position, the right femoral vein was catheterized using polyethylene tubing (PE-50). This catheter was used for fluid and drug administration. Simultaneously, the right femoral artery was also catheterized for monitoring blood pressure. In order to measure the respiratory parameters in spontaneously breathing rats, trachea was intubated using 13 gauge tracheal tube (2.5 mm ID, Instech Solomon, Pa.).
After establishing a stable base-line at 1.5% isoflurane, cumulative dose-dependent (0.01, 0.03, 0.1, 0.3, 1, 3, 10 mg/kg) ventilatory responses to compounds (XXXVI) and (L), labeled as cmpd (A) and cmpd (B) respectively, were generated from spontaneously breathing rats. Maximum peak minute ventilatory (MV) values at each dose of corresponding drug were calculated and used for generating ED50 values.

[3] = tested on: spontaneously breathing rats; test: Respiratory rate, tidal volume and minute volume in urethane-anesthetized rat; format: in vivo; conditions: IV; compared to vehicle
Description: Adult male Sprague Dawley rats (250-350 g body weight; Harlan, Indianapolis, Ind., USA) were anesthetized with isoflurane in oxygen. The femoral vein was cannulated to administer compounds. Body temperature was maintained between 36.0 and 37.2° C. throughout the experiment. The cervical portion of the trachea was cannulated and attached to a rat-sized pneumotachometer for measuring tracheal airflow. After surgical instrumentation was complete, isoflurane was slowly discontinued, while urethane (1.8 g/kg) was administered intravenously over 10-15 minutes to maintain anesthesia. Rats were permitted to breathe spontaneously and inspire 100% oxygen. At least 30-45 minutes after discontinuing isoflurane, baseline tracheal airflow was recorded for 20-30 minutes prior to compound administration. Vehicle and test compound were administered intravenously over 15-25 seconds and at a constant volume (1 mL/kg). At least 15-min elapsed between each dose of compound administered. Tracheal airflow was recorded continuously before, during and after compound administration. Tidal volume was derived from the integral of airflow, and respiratory rate was derived from the number of inspiratory cycles per minute. Minute volume was calculated as the product of tidal volume and respiratory rate (FIG. 32).

rat KCNK3/TASK-1 = molecular target: T1, rat KCNK3/TASK-1 (Rattus norvegicus, UniProt O54912); test: Thallium flux through rat TASK-1 (KCNK3-CHO cells); format: cell-based; conditions: Tl+ flux; 3 nM to 30 μM; read-out: rTASK-1 IC50
T1 construct: expressed in transfected cells; host or cells: CHO cells (tetracycline-inducible)
Description: (§2) CHO cells expressing recombinant tetracycline-inducible rat KCNK3/TASK-1 (KCNK3-CHO cells) were plated in poly-D-lysine coated 384-well plates at a density of 6,000 cells/well (50 μl/well of 120,000 cells/mL) and allowed to incubate for 72 hrs in the presence of 5% CO2 and 1 μg/mL tetracycline at 30° C. HEK cells expressing recombinant tetracycline-inducible human KCNK9/TASK-3 (KCNK9-HEK cells) were plated at a density of 15,000 cells per well (50 μl/well, 300,000 cells/mL) and incubated overnight at 37° C. and 5% CO2 in the presence of 1 μg/mL tetracycline.
(§3) Drug plates were generated from 10 mM 100% DMSO mother plates. Compounds were transferred to 384-well drug plates and titrated with sequential 1:3 dilutions in 100% DMSO for a total of 9 dilutions. A dilution plate is made by taking 2.4 μl from the mother plate and adding to […] of assay buffer for a 12% DMSO dilution plate. From this dilution plate, a final daughter plate is generated by taking 1 μA of the dilution plate and adding to 40 μA of assay buffer for a final DMSO concentration of 0.3%. Each compound was evaluated in duplicate and the concentration range evaluated was 3 nM to 30 μM.
(§4) When thallium was added to extracellular solution with a stimulus to open channels, Tl^+ flowed down its concentration gradient into the cells and channel activity was detected with an indicator dye, FluxOR™, that increased in cytosolic fluorescence. The FluxOR™ indicator dye was loaded into cells as a membrane permeable acetoxymethyl ester. On the day of each assay, FluxOR™ assay buffer was made fresh from Hank's Balanced Saline Solution (HBSS) buffered with 20 mM HEPES and pH adjusted to 7.4 with NaOH. Dye loading solution was prepared per manufacturer's instructions, and 25 μl of dye solution applied to each well with a multidropper after plating medium was removed manually from cells. Dye was allowed to load for 90 minutes at room temperature in the dark.
(§5) After the 90 min dye loading incubation and subsequent manual dye removal, 24 μl of the drug daughter plate was transfer to cell plates by a cybi-well system and then incubated at room temperature for 20 minutes to allow for equilibration within wells. Stimulation buffer was prepared from 5× chloride-free buffer, thallium, and potassium sulfate containing 5 times the desired final assay concentration of 10 mM K^+ 2.8 mM Tl^+. Cell plates were then transferred to an FDSS 6000 kinetic imaging plate reader (Hamamatsu). Fluorescence at 525 nm (excitation 488 nm) was measured for 10 seconds at 1 Hz to establish baseline for the entire plate. After baseline was established, 6 μl/well of stimulation buffer was added and fluorescence signal recorded for another 140 seconds.
(§6) From the fluorescence signals in the absence and presence of Galleon compounds, Inhibitory concentration curves were plotted and IC50 values were estimated using a curve fitting algorithm.

human KCNK9/TASK-3 = molecular target: T2, human KCNK9/TASK-3 (Homo sapiens, UniProt Q9NPC2); test: Thallium flux through human TASK-3 (KCNK9-HEK cells); format: cell-based; conditions: Tl+ flux; 3 nM to 30 μM; read-out: hTASK-3 IC50
T2 construct: expressed in transfected cells; host or cells: HEK cells (tetracycline-inducible)
Description: as §2, §3, §4, §5, §6

[4] = tested on: morphine-induced respiratory depression; test: Opioid-induced respiratory depression in the rat, plethysmography (minute ventilation); format: in vivo; conditions: opioid-treated rat; plethysmography; FIG. 9
Description: Rats with pre-cannulated jugular vein (for administering drugs) were acclimated to plethysmography chambers for a minimum of 60 minutes, or until animals were no longer restless. Each animal was dosed with morphine sulfate (10 mg/kg), dissolved in sterile water at a concentration of 10 mg/mL (supplied by Baxter Healthcare Corporation), via injection into the jugular vein catheter over a period of 5-10 seconds.
Compound (XXXVI) was dissolved in 20% hydroxypropyl β-cyclodextran (20% bcd on graph) at a concentration of 0.45 mg/mL at pH 5. After a period of 5 min, compound (XXXVI), labeled as cmpd (A), was administered via infusion into the jugular vein at a dose of 0.10 mg/kg/min for 20 min and then at a dose of […] for 20 min (e.g., 20 μL/min/0.3 kg rat to yield […]).
After 20 minutes of infusion at this dose, the infusion pumps were turned off, and all animals were given a 20 minute recovery period, followed by a post-study analysis of rat health and behavior. […] Results are illustrated in FIG. 1.

[5] = Solubility of process impurity (observation); format: physicochemical
Excerpt: Under certain conditions where the compounds of the present invention and their synthetic intermediates are exposed to acidic or alkaline aqueous environments, the bond between the aromatic heterocycle and the ring substituents may be susceptible to hydrolytic cleavage. For example, in the intermediates to compounds of formula (II-a), a halo substituent in the 2 position (Schemes 3 and 4) may be hydrolytically replaced with a hydroxyl group to yield N-(4,6-Bis(n-propylamino)-1,3,5-triazin-2-ol (CLXXVIII). Similarly, the amine substituents of compounds of formula (II-a) may be displaced by a hydroxyl group. Without wishing to be bound by theory, a series of chemical changes may occur to enable this substitution, such as a prior oxidation of the appended amine side chain, with hydrolytic replacement by hydroxyl as the final transformation. As a specific non-limiting example, the N,O-dimethylhydroxylamino substituent of N-(4,6-Bis-n-propylamino-[1,3,5]triazin-2-yl)-N,O-dimethyl-hydroxylamine (XXXV) may be partially displaced by hydroxyl during processing in the presence of water, forming (CLXXVIII) as a process impurity. […] It was unexpectedly observed that even at elevated temperatures (CLXXVIII) is very insoluble relative to the active ingredient. Thus, trace quantities of this compound in the API can be problematic in liquid formulations. […]

[6] = tested on: spontaneously breathing rats; test: Minute ventilation (MV) and cardiovascular parameters in naive rats; format: in vivo, rat; parameters: unit not given here
Description: as §1, with “pressure and heart rate.” for “pressure.”
After establishing a stable base-line at 1.5% isoflurane, compounds (typically at a dose of 1 mpk) were administered IV, and ventilatory parameters were generated from spontaneously breathing rats, along with cardiovascular output (mean arterial pressure (MAP) and heart rate). Maximum peak minute ventilatory (MV) responses (MPR), along with changes in minute ventilation versus baseline (AMV) were obtained as shown in the tables below.

[7] = Table 8, 1 mpk, 20% HPβCD, pH 4

T2 sequence (Q9NPC2 whole entry): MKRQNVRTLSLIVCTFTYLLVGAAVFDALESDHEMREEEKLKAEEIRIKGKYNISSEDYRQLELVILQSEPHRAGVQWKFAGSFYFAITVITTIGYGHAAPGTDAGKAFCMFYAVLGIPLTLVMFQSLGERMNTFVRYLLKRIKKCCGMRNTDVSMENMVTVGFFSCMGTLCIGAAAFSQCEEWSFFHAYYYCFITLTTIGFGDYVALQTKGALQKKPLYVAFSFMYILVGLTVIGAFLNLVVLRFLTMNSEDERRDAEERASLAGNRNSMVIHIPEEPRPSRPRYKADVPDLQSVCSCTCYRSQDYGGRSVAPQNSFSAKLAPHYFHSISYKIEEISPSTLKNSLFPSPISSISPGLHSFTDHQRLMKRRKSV
T1 sequence (O54912 whole entry): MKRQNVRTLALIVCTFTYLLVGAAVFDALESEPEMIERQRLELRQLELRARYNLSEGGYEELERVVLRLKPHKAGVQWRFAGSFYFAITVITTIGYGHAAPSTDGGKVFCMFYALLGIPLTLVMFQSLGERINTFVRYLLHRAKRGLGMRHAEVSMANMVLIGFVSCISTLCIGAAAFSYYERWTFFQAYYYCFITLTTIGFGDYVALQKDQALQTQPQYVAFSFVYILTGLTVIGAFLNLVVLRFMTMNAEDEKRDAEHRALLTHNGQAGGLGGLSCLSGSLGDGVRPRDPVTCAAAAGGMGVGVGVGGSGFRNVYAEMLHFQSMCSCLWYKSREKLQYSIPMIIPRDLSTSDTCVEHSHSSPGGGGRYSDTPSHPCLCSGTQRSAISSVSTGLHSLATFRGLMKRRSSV

SMILES: CCCNc1nc(NCCC)nc(N(C)NC)n1.O=S(=O)(O)O [L, N-(4,6-Bis-n-propylamino-[1,3,5]triazin-2-yl)-N,N′-dimethyl-hydrazine hydrogen sulfate]
- effects of opioid on blood gases and pH (pH, SaO2, pO2, pCO2) [1]: reverse the effects of opioid on blood gases and pH
- ED50 ([2]; Rattus norvegicus, cumulative IV doses 0.01-10 mg/kg, read-out: ED50, maximum peak minute ventilation): 0.13 mg/kg
- minute ventilation, dose dependence [2]: increased minute ventilation in a dose-dependent manner

- IC50 (rat KCNK3/TASK-1): 50 nM
- IC50 (human KCNK9/TASK-3): > 30000 nM
SMILES: CCCNc1nc(NCCC)nc(NOC)n1.Cl [XLII, N-(4,6-Bis-n-propylamino-[1,3,5]triazin-2-yl)-O-methyl-hydroxylamine hydrochloride]
- respiratory rate, tidal volume and minute volume [3]: increased both respiratory rate and tidal volume, and their product minute volume

SMILES: CCCNc1nc(N(C)OC)c2cc[nH]c2n1 [CXLII, N-(2-Propylamino-7H-pyrrolo[2,3d]pyrimidin-4-yl)-N,O-dimethyl-hydroxylamine hydrochloride]
- effects of opioid on blood gases and pH (pH, SaO2, pO2, pCO2) [1]: reverse the effects of opioid on blood gases and pH
- minute ventilation (MV), reversal of opioid-induced respiratory depression [4]: reverse opioid-induced respiratory depression

- solubility in aqueous environments [5]: sparingly soluble
- solubility in most organic solvents [5]: very low solubility
SMILES: CCCNc1nc(O)nc(NCCC)n1 [CLXXVIII]

- IC50 (rat KCNK3/TASK-1): 220 nM
- IC50 (human KCNK9/TASK-3): > 30000 nM
SMILES: CCCNc1cc(N(C)OC)nc(NCCC)n1 [CXXI, 2,6-Bis-(N-n-propylamino)-[1,3]pyrimidin-4-yl)-N,O-dimethyl-hydroxylamine hydrogen sulfate]
- minute ventilation, dose dependence [2]: increase minute ventilation in a dose-dependent manner

SMILES: CCCNc1nc(NN(C)C)c2ccn(C)c2n1 [CLXX, N,N-Dimethyl-N′-(2-n-propylamino-7-methyl-pyrrolo[2,3d]pyrimidin-4-yl)-hydrazine]
- IC50 (rat KCNK3/TASK-1): 160 nM
- IC50 (human KCNK9/TASK-3): > 30000 nM
- MV DMV ([6]; Table 8, 1 mpk, 15/65/20, pH 5): 89
- MV MPR ([6]; Table 8, 1 mpk, 15/65/20, pH 5): 167
- MV DMV [6, 7]: 83
- MV MPR [6, 7]: 175

- IC50 (rat KCNK3/TASK-1): 10 nM
- IC50 (human KCNK9/TASK-3): > 30000 nM
SMILES: CCCNc1nc(NC)nc(NCCC)n1 [CLXXII, N-(2,4-Bis-n-propylamino)-N-(6-methylamino)-[1,3,5]triazine]
- respiratory rate, tidal volume and minute volume [3]: increased both respiratory rate and tidal volume, and their product minute volume
- MV MPR ([6]; 1 mpk IV, 15/65/20, pH 5): 145
- MV ΔMV ([6]; 1 mpk IV, 15/65/20, pH 5): 106

- melting point: 123 to 126 °C
SMILES: CCCNc1cc(N(C)OC)nc(NCCC)n1 (as salt: hydrogen sulfate) [CXXI, 2,6-Bis-(N-n-propylamino)-[1,3]pyrimidin-4-yl)-N,O-dimethyl-hydroxylamine hydrogen sulfate]
